Data set [1] is described as follows: activation temperature of the retro Diels-Alder reaction of the linker groups (FIG. 7). The format is physicochemical. Conditions: linker group in FIG. 7. From the text: (§1) For different Diels-Alder cyclo-addition products, the retro (or reverse) Diels-Alder reaction will occur or be initiated at different temperatures (i.e., different activation temperatures). Thus, by varying the Diels-Alder cyclo-addition product in the linker group, breaking up or cleaving of the Diels-Alder cyclo-addition product (and concomitant decoupling of the therapeutic species and the nanoparticle) can be “tuned” to occur at different temperatures.

Data set [2] in a line: temperature dependency of retro Diels-Alder reaction (release of fluorescent si-RNA) for linker connected to a nanoparticle (FIGS. 10, 11). The format is physicochemical. Conditions: for cleavage of the linker: linker connected to a nanoparticle.
Excerpt: as §1
Specifically, to conjugate a FAM-tagged RFP antisense siRNA mimic, an EDC coupling protocol was used with […] of an aqueous EDC/NHS (100 mM) stock solution added to each of the three resuspended nanoparticle aliquots prepared in Example 3, followed by […] of the amine-terminated siRNA (4 mM), After 24 h, the particles were again centrifuged, washed, and resuspended in DI water. A control sample in which cysteamine modified SNPs were linked to the 6-maleimidohexanoic acid via EDC coupling was also prepared, similarly to the pyrrole-based reaction described above, but without addition of the diene, to test the stability of both the amide and thiol linkages. Conjugation of the linkers and siRNA was tested by chemically reducing the Ag-linker bond using TCEP reagent (tris(2-carboxyethyl)phosphine hydrochloride) and measuring FAM intensity of the supernatant.
The products of these reactions (pyrrole, furan, and thiophene-based) were analyzed. For example, the temperature dependency of the retro Diels Alder reaction (and release of the fluorescent si-RNA) was evaluated. […] The fluorescence intensity of the treated sample is assumed to indicate maximum release (due to cleavage/retro (or reverse) Diels Alder reaction).

In a further data set the test system is PAM2 skin cancer cells. In words: anti-cancer effects of released miRN-148b in PAM2 cells (FIG. 23). The following applies: PAM2 cells transfected, 7 days after transfection (positive control). The format is cell-based. Here is the method:
(§2) The anti-cancer effects towards PAM2 skin cancer cells of miRN-148b released from compositions described herein were explored using a furan-based linker conjugated with a FAM-tagged miRN-148b and an SNP. The furan-based linker composition was prepared according to Examples 1-5. SNPs surface-modified with miRNA mimics via Diels-Alder linkage, were sterilized in 70/30% ethanol and water solution prior to washing and resuspension in RNAse-free water. Subsequently, appropriate nanoparticle solution volumes were added, based on required dosages, to the adherent monolayer PAM2 cells at optimal seeding densities, immersed in appropriate cell culture media. Transfection was allowed to occur at 37° C. for 24 h.
FIG. 23A is a negative control showing fluorescence of the PAM2 cells in the presence of silver nanoparticles prepared in accordance with Example 1 after 7 days. FIG. 23B is a positive control showing PAM2 cells transfected with FAM-tagged miRN-148b 7 days after transfection.

Data set [3] relates to Ras-induced keratinocyte lung cancer cells. In words: anti-cancer effects of released miRN-148b in Ras-induced keratinocyte cells (FIG. 24). The format is cell-based. Conditions: keratinocyte cells transfected with 100 nM, after 7 days. The procedure:
as §2, with “Ras-induced keratinocyte lung” for “PAM2 skin”
FIG. 24A is a negative control of keratinocyte cells in the absence of the composition and FAM-tagged miRN-148b after 7 days. FIG. 24B is a positive control of keratinocyte cells after 7 days, which have been transfected with FAM-tagged miRN-148b (100 nM).

{FAM} = fluorescein (FAM) label; {NH2} = amine modification

With `O=C(O)CCCCCN1C(=O)C2C3C=CC(C(=O)O)(N3)C2C1=O` (centres unmarked) [pyrrole-based linker group], the “activation temperature of the retro Diels-Alder reaction” value (shortened to “activation temperature”) in data set [1] turned out to be 40 °C.

As for `O=C(O)CCCCCN1C(=O)C2C3C=CC(CS)(S3)C2C1=O` (centres unmarked) [thiophene-based linker group], the “activation temperature” value in data set [1] is “around 80 °C”. The “cleavage of the linker” value in data set [2] (after 2 hours of heating at 37° C., 60° C., and 80° C.) is “not observed until 80 °C”.

Turning to “FAM-tagged miRN-148b: 3′amine/5′-FAM modified single stranded siRNA, sequence UUGGAGCCGUACUGGAACUUG (5' {FAM}, 3' {NH2}, sugars by position and backbone not given here)”, in the data set on PAM2 skin cancer cells, the “cell proliferation and growth” value is “reduced cell proliferation and growth”. In addition, in data set [3], the cell growth result is reported as “normal cell behavior”.

For `O=C(O)CCCCCN1C(=O)C2C3C=CC(CS)(O3)C2C1=O` (centres unmarked) [furan-based linker group], the “activation temperature” value in data set [1] was 60 °C. For the same molecule, the “speed of cleavage of the linker compared with the thiophene-based linker” value in data set [2] (FIGS. 10 and 11) is recorded as “faster at lower temperatures”. Also, the “cleavage of the linker” value in data set [2] (after 1 hour of heating, at 60° C.) is given as 25%.

(Values after patent US20250241863A1, “COMPOSITIONS AND METHODS FOR TARGETED DELIVERY OF THERAPEUTIC AND/OR DIAGNOSTIC SPECIES” (THE PENN STATE RESEARCH FOUNDATION, priority 2017, published 2025).)
